In paper PMC10552397 (Cell Communication and Signaling : CCS, 2023):

Tested on: HeLa wt cells
Test: Immunoblot of LC3-II and SQSTM1 (autophagic flux)
Format: cell-based
Settings: 100 nM, 6 h
Protocol: For SDS PAGE and western blotting, cells were harvested by scraping, pelletized at 150 rcf and 4 °C for 5 min, washed with DPBS and quickly frozen in liquid nitrogen. Cells were lysed in lysis buffer (20 mM Tris–HCl, 150 mM NaCl, 500 µM EDTA, 1% [v/v] Triton X-100, 1 mM Na3VO4, 10 mM NaF, 2.5 mM Na4P2O7, 1X protease inhibitor cocktail [Roche, Basel, Switzerland, #4693132001]) for 30 min on ice and the lysates were cleared by centrifugation at 18,000 rcf and 4 °C for 15 min. Protein concentration was determined by Bradford assay and sample buffer was added (62.5 mM Tris, 8.6% [v/v] glycerol, 2% [w/v] SDS, 33.3 µg/mL bromophenol blue, 1% [v/v] β-mercaptoethanol). […] For CETSA analysis of TPP-TR samples, the protein concentration was determined by Pierce 660 nm Protein Assay and the protein concentration of the 36.5 °C treated sample of each treatment and replicate was used for the other nine samples of the respective sample set to display temperature-dependent total protein aggregation and precipitation. […] After separation by SDS-PAGE, proteins were transferred to PVDF membranes (Merck, Darmstadt, Germany, #IPFL00010), blocked with 5% milk powder in TBST and analyzed using the indicated primary antibodies followed by appropriate IRDye 800- or IRDye 680-conjugated secondary antibodies (LI-COR Biosciences, Lincoln, NE, USA). […]

`CCCCCC1=C/C(=C/c2[nH]c(-c3ccc[nH]3)cc2OC)N=C1C` [Prodigiosin, prodigiosin] was tested, and the LC3-II level was “accumulated” and the “starvation-induced degradation of SQSTM1” value (EBSS) was “blocked”.
